Results: patent US20140100419A1, “ACTIVE VITAMIN D OR ANALOGS THEREOF FOR USE IN IN VIVO OR IN VITRO FERTILIZATION” (priority 2011, published 2014)

Legend:
Assay type in all cases: cell-based
human spermatozoa [1] = assay: Intracellular calcium [Ca2+]i in fura-2 loaded human spermatozoa; settings: for increase in [Ca2+]i after addition of 1 mM calcium: calcium free media, calcium added after treatment
Protocol: (§1) Calcium measurements and the acrosome reaction were performed on motile spermatozoa isolated after percoll density gradient centrifugation (Supra sperm gradients, (ORIGO)) following the manufacturer's instructions. Briefly, spermatozoa were separated from seminal plasma by centrifugation on a discontinuous percoll gradient using a two-step gradient comprising 2 ml layers of 55% and 80% percoll respectively. Semen was placed on the top of the gradient and centrifuged at 300×g for 25 min. The spermatozoa at the base of the 80% fraction were collected and washed with a 5 ml volume of capacitating medium (CaCl2 1.5 mM, KCl 4.3 mM, NaHCO3 31 mM, HEPES 15 mM, Human Serum Albumin 5 mg/ml, Glucose 4.5 mM, Sodium Pyruvate 0.8 mM, Synthetic Serum Replacement, 0.5 ug/ml human recombinant insulin (Sperm preparation media (ORIGO)) and finally resuspended in capacitating media and used for the following assays of calcium measurements and acrosome reaction. All men were part of the above mentioned ongoing surveillance program of semen quality among young Danish men and included after approval from the local ethical committee (No. H-4-2010-016).
Semen samples were separated by percoll density gradient centrifugation to ensure viable and motile spermatozoa and resuspended in capacitating media for 1.5 hours. Afterwards, loaded with 3 μM of the fluorescent probe (intracellular calcium binding) fura-2/AM (Invitrogen, USA) for 30 min, centrifuged (10 min at 300 g) and washed with Krebs-Ringer buffer (120 mM NaCl, 15 mM NaHCO3, 5 mM KCl, 1 mM CaCl2, 5 mM Na2HPO4, 1 mM MgCl2 pH 7.3). […] Subsequently, 80 μl of the sperm sample was diluted in 920 μl Krebs-Ringer buffer and loaded on polylysine-coated chambers to minimize movement of the spermatozoa (Lab-Tek; Nalge Nunc International, USA). A Zeiss Axiovert 135 microscope equipped with a Zeiss Achrostigmat 40×1.3 NA objective was used to acquire images from the fluorescent probe. Excitation was obtained by a Polychrome Villuminator from Till Photonics (Germany) and images were acquired using a Cool Snap CCD camera (Photometrics, USA) from Robert Scientific (Malaysia). For measurements of [Ca2+]i, the excitation wavelengths were 338 and 380 nm, measuring emission above 510 nm using a cut-off filter. […] After background subtraction, ratio images were formed using MetaFluor software.
All experiments started by using low magnification to ensure visibility of several spermatozoa simultaneously. […] All measurements of [Ca^2+], were based upon evaluation of at least three spermatozoa simultaneously (see exact number in figure legends), and were repeated in at least three separate experiments. We used 10 different semen donors to ensure that all experiments were reproduced on semen samples from at least two different men.

human spermatozoa [2] = assay: Sperm motility (ABC) in semen samples exposed to 1,25(OH)2D3
Protocol: The participants produced a semen sample by masturbation. Self-reported information of duration of ejaculation abstinence was obtained. Trained technicians conducted semen analysis and a detailed description of assessment of semen samples has previously been published. Semen volume was estimated by weighing. For sperm motility assessment, duplicates of 10 μl of well-mixed semen were placed on a glass slide, examined on a heating stage kept at 37° C., under a microscope at ×400 magnification, and spermatozoa were classified as progressive motile (WHO class A+B), non-progressive motile (class C) or immotile (class D). The average of the two motility assessments was used. For the assessment of the sperm concentration the samples were diluted in a solution of 0.6 mol/l NaHCO3 and 0.4% (v/v) formaldehyde in distilled water, and subsequently assessed using Bürker-Türk haemocytometer. Only spermatozoa with tails were counted. Finally, smears were prepared, Papanicolaou stained and spermatozoa morphology assessed according to strict criteria (Menkveld et al., 1990).
Semen samples for the in vitro studies were obtained from 40 men from the general population, who were investigated between October 2009 and December 2010. Their semen samples were assessed as described above. […] Motility assessment was conducted in 17 samples (in duplicates) under non-capacitating conditions (in their seminal plasma), and 3 samples were also analyzed in capacitating conditions. 7 consecutively included men were used to investigate a dose-response relationship between VD and sperm motility.

human spermatozoa [3] = assay: Acrosome reaction (PSA-FITC staining)
Protocol: as §1
Acrosome status was assessed according to a modified version of the method described by Cross et al. 1986. Motile spermatozoa were isolated by percoll gradient centrifugation, washed twice with 5 ml 0.9% sodium chloride followed by centrifugation at 300×g for 10 min. […] The smear and cytospin were fixed in 96% ethanol for 5 min after air drying, washed in distilled water and stained for minimum 2 hours with Pisum sativum agglutinin labelled with fluorescein isothiocyanate (Sigma Aldrich) in Dulbecco phosphate buffered saline at 4° C. Finally, the slides were washed in distilled water and mounted with Vectrashield (H-1080 Vectar Laboratories) and 200 spermatozoa were counted on each slide using a fluorescence microscope at a magnification of 400×. The mean percentage of acrosome-reacted spermatozoa of the two slides was calculated. When more than half the head of a spermatozoon was brightly and uniformly fluorescent, the acrosome was considered to be intact. Spermatozoa without fluorescence or with a fluorescing band limited to the equatorial segment were considered to be acrosome-reacted. Spermatozoa with a fluorescing band limited to the equatorial segment were named eq-AR. The person assessing the slides was blinded to the treatment of the sample.

[4] = test system: zona pellucida (ZP) of human oocytes; assay: Human sperm-zona pellucida interaction (sperm-egg binding) test
Description: We used the Human sperm-zona pellucida interaction test that is designed to determine the capacity of sperm to interact with the zona pellucida (ZP) of human oocytes and serves thus as a test for evaluating fertility potential of human spermatozoa. The tests provide important diagnostic information about sperm fertilising ability and we used a modified version of the test developed by Liu and Baker (Liu and Baker hum reprod 1999 Defective sperm-zona pellucida interaction: a major cause of failure of fertilization in clinical in-vitro fertilization).
If the oocyte had sperm bound to the ZP from the IVF insemination, these were removed by aspiration using a fine glass pipette with an inner diameter (120 μm) slightly smaller than the oocyte diameter. […] Oocytes with >10 sperm penetrating the ZP were not used. Also degenerate, activated or morphologically abnormal oocytes were not used for the sperm-ZP interaction test. Oocytes were pooled from several patients and used for the test on the same day or kept in the incubator and used within the next 20 days. Between 15-30 oocytes was placed in 1 ml salt solution (storage 2-4 weeks). Salt-stored human oocytes were washed with gamete buffer (COOK) with four changes in 3 hours before they were used for the sperm-egg binding test.
Semen samples from five donors were used. […] The washed sperm pellet was resuspended with sEBSS to a sperm concentration of 2×10^6/ml for the ZP-interaction test. For the assessment of the sperm concentration the samples were diluted following the manufactures instruction and subsequently determined using SP-100 (Chemometec).
For the sperm-ZP interaction tests, either high quality sperm or total sperm sample (2×10^6) in 0.5 ml of medium (+/−1 nM Calcitriol) were incubated with three oocytes for 2 h at 37° C. in 5% CO2 in air. After incubation, the oocytes were transferred to sEBSS and washed by repeated aspiration with a glass pipette (inside diameter approximately 250 μm) to dislodge sperm loosely adhering to the surface of the ZP. Sperm binding to all oocytes was assessed.

human spermatozoa [5] = assay: Sperm motility of washed spermatozoa with or without percoll gradient centrifugation
[6] = 1 nM 1,25(OH)2D3 after pretreatment with nifedipine 10 μM
[7] = calcium free media with 5 μM EGTA

C=C1/C(=C\C=C2/CCC[C@]3(C)[C@@H]([C@H](C)CCCC(C)(C)O)CC[C@@H]23)C[C@@H](O)C[C@@H]1O [1,25(OH)2D3, 1,25-dihydroxycholecalciferol]
threshold for the all-or-nothing calcium response (human spermatozoa [1]): 10 to 50 µM | time until calcium levels restore back to baseline (human spermatozoa [1]): ≤ 2 min | max amplitude relative to max amplitude elicited by 10 μM progesterone (human spermatozoa [1]; 1 nM 1,25(OH)2D3): 40-80% | maximum amplitude of calcium increase versus baseline calcium level (human spermatozoa [1]; 1 nM 1,25(OH)2D3): 5-10 fold | amplitude of calcium response versus capacitating media (human spermatozoa [1]; 1 nM 1,25(OH)2D3, non-capacitating media, data not shown): lower amplitude | length of repolarisation phase (human spermatozoa [1]; [6]): 4 min | maximum amplitude of calcium increase versus baseline (human spermatozoa [1]; [6]): 7 fold | increase in intracellular calcium ([Ca2+]i) from baseline calcium level (human spermatozoa [1]; 1,25(OH)2D3 100 μM-10 μM (so in the source), motile spermatozoa): 5-10 fold | calcium response (human spermatozoa [1]; 1,25(OH)2D3 added 9 min after initiation of thapsigargin 4 μM): unable to elicit a substantial calcium response | calcium response (human spermatozoa [1]; 1,25(OH)2D3 in spermatozoa exposed to 2 μM U73122): unable to induce a rapid increase | time to max amplitude of the normal rapid calcium response (human spermatozoa [1]; 1,25(OH)2D3 without inhibitor): within one minute | duration of plateau phase of [Ca2+]i (human spermatozoa [1]; <10 nM 1,25(OH)2D3): up to 50 sec | change in Ca2+ concentration (human spermatozoa [1]; Example 4, 1 nM (FIG. 4)): instant increase | start of calcium increase in the neck region (human spermatozoa [1]; after addition of 1,25(OH)2D3): ≤ 5 s | increase in [Ca2+]i (human spermatozoa [1]; [7]): could not induce an increase | calcium response (human spermatozoa [1]; calcium free media without EGTA): marked response | increase in [Ca2+]i after addition of 1 mM calcium (human spermatozoa [1]): comparable to the increase observed in the normal calcium containing Krebs Ringer solution | duration of plateau phase of [Ca2+]i (human spermatozoa [1]; higher 1,25(OH)2D3 concentrations): 50 to 300 s | duration of intracellular calcium increase before return to baseline (human spermatozoa [1]; physiological concentrations): up to 90 seconds | effect of pre-treatment on the calcium effect of progesterone (human spermatozoa [1]; pre-treatment with 1,25(OH)2D3, then 10 μM progesterone): could not be abrogated | median decrease in sperm motility compared with control (human spermatozoa [2]; 10^-5M): 15% | median increase in sperm motility (human spermatozoa [2]; 10^-9M, p=0.006): 7% | increase in median sperm motility (ABC) (human spermatozoa [2]; 10^-14M to 10^-9M, non-capacitating conditions): 2-7% | increase in mean sperm motility (human spermatozoa [2]; 17 men, 10^-9M for 30 min at room temperature, p=0.010): 2.9% | sperm motility compared with control (human spermatozoa [2]; concentrations above 10^-7M): decreased motility compared with control | median acrosome reacted spermatozoa, VD group (human spermatozoa [3]; 10^-9 M, capacitating conditions (control group 12%)): 21% | median percentage of spermatozoa with an equatorial band (eq. AR) (human spermatozoa [3]; 10^-9 M, capacitating conditions (from 4.7%), p=0.214): 5.3% | average increase in number of acrosome reacted spermatozoa (human spermatozoa [3]; 10^-9 M, capacitating conditions, p=0.024): 6% | acrosome reacted spermatozoa, VD treated (human spermatozoa [3]; non-capacitating conditions (NaCl), 6 men (control 3.7%), not significant): 4.2% | mean number of spermatozoa bound to each oocyte ([4]; 1 nM, 5 donors, all pretreatments (vehicle mean 52)): 74 | mean difference in sperm bound versus vehicle ([4]; 1 nM, 5 donors, all pretreatments, p=0.022): 43% | average improvement of sperm-egg binding versus vehicle ([4]; 1 nM, isolated with percoll gradient centrifugation, p=0.027): 28% | difference in sperm-egg binding versus vehicle ([4]; 1 nM, not separated by percoll gradient centrifugation, p=0.139): 60% | increase in sperm-egg binding ([4]; patient 3 (low semen quality), following percoll gradient centrifugation): 33% | change in sperm-egg binding ([4]; patient 3 (low semen quality), not separated by Percoll centrifugation): modest decline | change in proportion of motile sperm (human spermatozoa [5]; 1 nM calcitriol, 24 hours at room temperature, with and without percoll, not substantially different from vehicle): modest decrease | motile sperm (human spermatozoa [5]; 1 nM, 60 minutes, isolated by percoll gradient centrifugation (from 62%)): 65% | sperm motility (mean) (human spermatozoa [5]; 1 nM, 60 minutes, no percoll centrifugation (vehicle mean 50)): 48 | time spermatozoa remain motile after treatment (human spermatozoa [5]; Example 5 + FIG. 9): at least 24 hours

C=C1/C(=C\C=C2/CCC[C@]3(C)[C@@H]([C@H](C)CCCC(C)(C)O)CC[C@@H]23)C[C@@H](O)C[C@H]1O [1β,25(OH)2D3, 1β,25-(OH)2D3]
effect on calcium effect of progesterone (human spermatozoa [1]; Example 4): did not abrogate | effect on calcium response to 1,25(OH)2D3 (human spermatozoa [1]; Example 4, non-genomic competitive antagonist): abrogated the response to 1,25(OH)2D3 completely | effect of pretreatment on calcium response to 1,25(OH)2D3 (VD response) (human spermatozoa [1]; pretreatment with 1-40 μM 1β,25(OH)2D3): blocked completely

C=C1CC[C@H](O)C/C1=C/C=C1\CCC[C@]2(C)[C@@H]([C@H](C)CCCC(C)(C)O)CC[C@@H]12 [25-OH D3, 25-OH Vitamin D3]
increase in [Ca2+]i (human spermatozoa [1]; 25-OH D3 100 nM): unable to elicit an increase | increase of [Ca2+]i (human spermatozoa [1]; Example 4, 25-OHD3 in the nanomolar range): unable to increase [Ca^2+], substantially | increase of [Ca2+]i (human spermatozoa [1]; Example 4, higher concentrations of 25-OHD3 (1 μM, FIG. 7)): marked but delayed increase

C[C@H](CCC(=O)O)C[C@H](C)C[C@H](C)C(=O)/C=C(\O)[C@H](C)C[C@H](C)C/C=C/[C@@H](C)[C@@H](O)[C@@H](C)[C@@H](O)C[C@@H]1CC[C@@](C)([C@H]2CC[C@@](C)([C@@H](C)O)O2)O1 [Ionomycin, ionomycin]
amplitude of calcium response from baseline (human spermatozoa [1]; ionomycin 500 nM, calcium free media with EGTA): < 3 fold

COc1ccc2c(c1)CC[C@@H]1[C@@H]2CC[C@]2(C)[C@@H](NCCCCCCN3C(=O)C=CC3=O)CC[C@@H]12 [U73122, 1-[6-[[17fi-3-methoxyestra-1,3,5(10)-trien-17-yl]amino]hexyl]-lH-pyrrole-2,5-dione]
increase of baseline [Ca2+]i (human spermatozoa [1]; 10 μM U73122): more than 5 fold | proportion of spermatozoa with increased baseline [Ca2+]i (human spermatozoa [1]; 10 μM U73122): > 80% | effect of PLC inhibition on the effect of progesterone (human spermatozoa [1]; U73122, data not shown): unable to abrogate

C=C1/C(=C\C=C2/CCC[C@]3(C)[C@@H]([C@H](C)/C=C/[C@@H](O)C4(C(=O)OCCCC)CC4)CC[C@@H]23)C[C@@H](O)C[C@@H]1O [ZK159222]
effect on calcium increase by 1,25(OH)2D3 (human spermatozoa [1]; Example 4, pre-treatment with 100 nM ZK159222 (FIG. 5)): unable to influence | effect of antagonist on calcium response to 1,25(OH)2D3 (human spermatozoa [1]; ZK159222 0.1-100 μM, data not shown): unable to abrogate or suppress

CC(=O)[C@H]1CC[C@H]2[C@@H]3CCC4=CC(=O)CC[C@]4(C)[C@H]3CC[C@]12C [progesterone]
time until calcium level restored to baseline after initiation of treatment (human spermatozoa [1]; 10 μM progesterone after nifedipine 10 μM pretreatment): 9 min | increase in [Ca2+]i (human spermatozoa [1]; [7]): could not induce an increase | increase in [Ca2+]i after addition of 1 mM calcium (human spermatozoa [1]): comparable to the increase observed in the normal calcium containing Krebs Ringer solution

C/C=C(/C)C(=O)O[C@H]1C(C)=C2[C@H]([C@@H]1OC(=O)CCCCCCC)[C@@](C)(OC(C)=O)C[C@H](OC(=O)CCC)[C@@]1(O)[C@H]2OC(=O)[C@@]1(C)O [thapsigargin]
stable plateau of calcium concentration versus baseline (human spermatozoa [1]; thapsigargin 4 μM, nine minutes after exposure): 3 fold | effect on calcium response to 1,25(OH)2D3 (human spermatozoa [1]; thapsigargin <1 μM): unable to abrogate
